Test system: rats subjected to adrenalectomy (granuloma around implanted cotton wads)
Assay: granulom test (cotton-pellet test) on rats subjected to adrenalectomy: granuloma growth, thymus weight, body weight increase
Type: in vivo, rat (Sprague-Dawley)
Settings: for Dose required to obtain 50% inhibition of Granuloma growth: Table 3, adrenalectomized young male Sprague-Dawley rats, topical in implanted cotton wads, day 8; for Dose required to obtain 25% inhibition of Body weight Increase / Dose required to obtain 50% inhibition of Thymus weight: 11520 min
Description: In the following this active stereoisomeric component will always be designated B. As regards the steroids referred to in connection with the present invention the stereoisomeric mixture as well as the individual stereoisomeric components A and B have been investigated with regard to antiinflammatory activity in granulom test on rats subjected to adrenalectomy. The experimental procedure used corresponds largely to that described by G. Engelhardt: Arzneimittel-Forschung, 13, p. 588, 1963. According to this procedure the test substances are applied topically in the implanted cottom wads. It is thereby possible to study the local antiinflammatory effect in granulomas and also systemic effects in the form of retrogression of thymus and inhibition of bodyweight growth.
Young male rats of the Sprague-Dawley strain weighing about 110-130 g were subjected to adrenalectomy under ether narcosis. Two sterilized cottom wads of each about 6 mg were implanted simultaneously subcutaneously on the lateral side of the spinal. After awakening the animals were stored 5 per cage and were supplied with normal food and 1% sodium chloride solution as drinking water. On the eighth test day the animals were sacrificed by ether narcosis. The granuloma formed around the cotton wads were carefully recovered and thymus and body weights were measured. The two granuloma from each animal were dried over night at 80° C and weighed. After subtraction of the initial weight of the cotton wads the weight increase was used as a measure of the granulom growth.
The test substances were used dissolved in ethyl acetate. Under aseptic conditions 0.05 ml of said solutions were injected into each of the cotton wads, whereafter the solvent was allowed to evaporate in the desiccator. Normally 3 concentrations of each test substance with the standard doses 3.3, 30 and 270 γ/animal were investigated. Each test group normally comprised 10 rats. The cotton wads of the control group were injected with only ethyl acetate, but were in other respects treated in the same way. When considering the effects of the test substances the average values of granulom growth, thymus weight and body weight increase day 0-8 were measured in each group in absolute figures and in % of the corresponding figure of the control group. Dose-response curves were drafted and used for estimating the doses giving 50 % reduction of granulom growth and of thymus weight and 25 % decrease of body weight increase.
The following Table 4 discloses the results of the cotton-pellet test hereinbefore described, giving in addition figures for the therapeutic ratios, that is, the ratios of the ED50 for thymus weight inhibition divided by the ED50 for granuloma formation inhibition, and the ED25 for body weight increase inhibition over the ED50 for granuloma formation inhibition. As will be recognized, the higher the number for the therapeutic ratio, the more favorable the therapeutic ratio. […] As will be noted for the table, the therapeutic ratio for thymus over granuloma for the Component A esters is 4.2, 7.1, 4.5, 2.6, 2.2, 1.7, 2.5 and 1.7 times as good as it is for the corresponding Component B ester isomer, whereas the therapeutic ratio for the Component A ester isomer as far as body weight is granuloma 2.7, 3.3, 9.8, 6.4, 2.3, 2.8, 3.3 and 2.8 times as favorable as for the corresponding Component B ester isomer.

SMILES	Dose required to obtain 50% inhibition of Granuloma growth	Dose required to obtain 25% inhibition of Body weight Increase (rat, in vivo)	Dose required to obtain 50% inhibition of Thymus weight (rat, in vivo)	ED25 body weight increase inhibition (rat, in vivo) [µg/animal]	ED50 thymus weight inhibition (rat, in vivo) [µg/animal]	Therapeutic ratio body weight/granuloma (rat, in vivo)	Therapeutic ratio thymus/granuloma (rat, in vivo)	Therapeutic ratio body weight/granuloma (Table 4, ED25 body weight increase inhibition over ED50 granuloma formation inhibition)	Therapeutic ratio thymus/granuloma (Table 4, ED50 thymus weight inhibition divided by ED50 granuloma formation inhibition)
CCC1O[C@@H]2C[C@H]3[C@@H]4CCC5=CC(=O)C=C[C@]5(C)[C@@]4(F)[C@@H](O)C[C@]3(C)[C@]2(C(=O)CO)O1 (single isomer, unassigned) [2 B]	10 γ/animal	100 γ/animal	60 γ/animal						
CCCC1O[C@@H]2C[C@H]3[C@@H]4C[C@H](F)C5=CC(=O)C=C[C@]5(C)[C@@]4(F)[C@@H](O)C[C@]3(C)[C@]2(C(=O)CO)O1 (single isomer, unassigned) [8 A]	6 γ/animal	50 γ/animal	13 γ/animal						
CC1O[C@@H]2C[C@H]3[C@@H]4C[C@H](F)C5=CC(=O)C=C[C@]5(C)[C@@]4(F)[C@@H](O)C[C@]3(C)[C@]2(C(=O)CO)O1 (single isomer, unassigned) [7 B]	10 γ/animal	15 γ/animal	6 γ/animal						
CCCC1O[C@@H]2C[C@H]3[C@@H]4CCC5=CC(=O)C=C[C@]5(C)[C@@]4(F)[C@@H](O)C[C@]3(C)[C@]2(C(=O)COC(=O)c2cc3ccccc3o2)O1 (single isomer, unassigned) [20 A]	< 3 γ/animal	50 γ/animal	90 γ/animal	50	90	> 16.7	> 30.0		
CC1O[C@@H]2C[C@H]3[C@@H]4CCC5=CC(=O)C=C[C@]5(C)[C@@]4(F)[C@@H](O)C[C@]3(C)[C@]2(C(=O)COC(=O)c2cc3ccccc3o2)O1 (stereo partly shown) [16 B]	3 γ/animal	10 γ/animal	10 γ/animal	10	10			3.3	3.3
CCCC1O[C@@H]2C[C@H]3[C@@H]4CCC5=CC(=O)C=C[C@]5(C)[C@H]4[C@@H](O)C[C@]3(C)[C@]2(C(=O)COC(C)=O)O1 (single isomer, unassigned) [27 B]	< 3 γ/animal	35 γ/animal	60 γ/animal	35	60	> 11.7	> 20.0		
CCCC1O[C@@H]2C[C@H]3[C@@H]4C[C@H](F)C5=CC(=O)C=C[C@]5(C)[C@@]4(F)[C@@H](O)C[C@]3(C)[C@]2(C(=O)COC(=O)c2cc3ccccc3o2)O1 (single isomer, unassigned) [25 A]	< 3 γ/animal	20 γ/animal	15 γ/animal	20	15	> 6.7	> 5.0		
CCCCCC1O[C@@H]2C[C@H]3[C@@H]4CCC5=CC(=O)C=C[C@]5(C)[C@H]4[C@@H](O)C[C@]3(C)[C@]2(C(=O)CO)O1 (single isomer, unassigned) [13 A]	8 γ/animal	100 γ/animal	> 270 γ/animal						
CCCC1O[C@@H]2C[C@H]3[C@@H]4CCC5=CC(=O)C=C[C@]5(C)[C@@]4(F)[C@@H](O)C[C@]3(C)[C@]2(C(=O)CO)O1 (single isomer, unassigned) [3 B]	3 γ/animal	100 γ/animal	17 γ/animal						
CC1O[C@@H]2C[C@H]3[C@@H]4CCC5=CC(=O)C=C[C@]5(C)[C@@]4(F)[C@@H](O)C[C@]3(C)[C@]2(C(=O)COC(=O)c2cccnc2)O1 (single isomer, unassigned) [17 B]	3 γ/animal	20 γ/animal	13 γ/animal						
CC1O[C@@H]2C[C@H]3[C@@H]4CCC5=CC(=O)C=C[C@]5(C)[C@@]4(F)[C@@H](O)C[C@]3(C)[C@]2(C(=O)COC(=O)c2cccnc2)O1 (single isomer, unassigned) [17 A]	7 γ/animal	20 γ/animal	45 γ/animal						
CCCCCC1OC2CC3C4CCC5=CC(=O)C=CC5(C)C4(F)C(O)CC3(C)C2(C(=O)CO)O1 (mixture of isomers) [5 A+B]	17 γ/animal	> 270 γ/animal	130 γ/animal						

Reference: patent US3996359A, “Novel stereoisomeric component A of stereoisomeric mixtures of 2'-unsymmetrical 16,17-methylenedioxy steroid 21-acylates, compositions thereof, and method of treating therewith” (AB Bofors, priority 1972, dated 1976)
